Read-outs that look alike come from different tables or passages of the source.

`C[C@@H]1CS(=O)(=O)CCC=CCc2cccc(c2)C[C@@H]([C@@H]2C[C@@H](C)C(=O)O2)NC1=O` returned a ring closure, yield of all isomers (from C=CCCS(=O)(=O)C[C@@H](C)C(=O)N[C@@H](Cc1cccc(CC=C)c1)[C@@H]1C[C@@H](C)C(=O)O1, rcm bond, benzylidene(1,3-dimesitylimidazolidin-2-ylidene)(tricyclohexylphosphine)ruthenium dichloride (Grubbs II), dichloromethane, 60.0 °C, 2.5 h) of 74.7%.

Under “from CCCCNC(=O)[C@H](C)C[C@H](O)[C@H](Cc1cccc(OCCCCC(=O)O)c1)NC(=O)[C@H](C)N, amide bond, BOP, diisopropylethylamine, DMF, 7.1 mM, 25.0 °C, 16.0 h”, `CCCCNC(=O)[C@H](C)C[C@H](O)[C@@H]1Cc2cccc(c2)OCCCCC(=O)N[C@@H](C)C(=O)N1` (relative stereo) came in with a ring closure, yield of all isomers of 1.7%.

These data come from patent US20080070885.
